Laboratory results: ChEMBL document CHEMBL4507299, “Data for DCP probe PF-04554878” (2021)

Experiments:
[1] = target: T1, Serine/threonine-protein kinase Chk1 (Homo sapiens) (UniProt O14757)
T1 sequence (whole entry): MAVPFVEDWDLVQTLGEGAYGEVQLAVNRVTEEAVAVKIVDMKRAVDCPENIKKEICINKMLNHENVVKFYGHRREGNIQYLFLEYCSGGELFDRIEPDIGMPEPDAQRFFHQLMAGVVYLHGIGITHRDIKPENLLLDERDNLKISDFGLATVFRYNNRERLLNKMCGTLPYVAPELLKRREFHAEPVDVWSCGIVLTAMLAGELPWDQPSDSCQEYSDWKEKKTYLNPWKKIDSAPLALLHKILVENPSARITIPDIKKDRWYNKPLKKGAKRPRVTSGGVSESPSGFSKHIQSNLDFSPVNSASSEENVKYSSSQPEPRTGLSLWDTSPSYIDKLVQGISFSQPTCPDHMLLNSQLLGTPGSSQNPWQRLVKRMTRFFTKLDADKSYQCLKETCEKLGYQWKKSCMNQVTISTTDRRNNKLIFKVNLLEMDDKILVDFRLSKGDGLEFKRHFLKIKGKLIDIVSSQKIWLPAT

[2] = target: Macrophage colony-stimulating factor 1 receptor (Homo sapiens) (UniProt P07333)
[3] = target: Serine/threonine-protein kinase Nek5 (Homo sapiens) (UniProt Q6P3R8)
[4] = system: Receptor-type tyrosine-protein kinase FLT3 (Homo sapiens), P36888 [UNDEFINED MUTATION]
[5] = target: Ephrin type-A receptor 7 (Homo sapiens) (UniProt Q15375)
[6] = target: Cyclin-dependent kinase-like 2 (Homo sapiens) (UniProt Q92772)
[7] = target: Serine/threonine-protein kinase TBK1 (Homo sapiens) (UniProt Q9UHD2)
[8] = system: Epidermal growth factor receptor (Homo sapiens), P00533 [UNDEFINED MUTATION]
[9] = target: Serine/threonine-protein kinase PLK1 (Homo sapiens) (UniProt P53350)
[10] = target: Serine/threonine-protein kinase B-raf (Homo sapiens) (UniProt P15056)
[11] = target: Fibroblast growth factor receptor 2 (Homo sapiens) (UniProt P21802)
[12] = target: Serine/threonine-protein kinase N2 (Homo sapiens) (UniProt Q16513)
[13] = target: Maternal embryonic leucine zipper kinase (Homo sapiens) (UniProt Q14680)
[14] = target: Casein kinase I isoform gamma-3 (Homo sapiens) (UniProt Q9Y6M4)
Casein kinase I isoform gamma-3 (Homo sapiens), sequence (Q9Y6M4 whole entry, looked up, canonical isoform): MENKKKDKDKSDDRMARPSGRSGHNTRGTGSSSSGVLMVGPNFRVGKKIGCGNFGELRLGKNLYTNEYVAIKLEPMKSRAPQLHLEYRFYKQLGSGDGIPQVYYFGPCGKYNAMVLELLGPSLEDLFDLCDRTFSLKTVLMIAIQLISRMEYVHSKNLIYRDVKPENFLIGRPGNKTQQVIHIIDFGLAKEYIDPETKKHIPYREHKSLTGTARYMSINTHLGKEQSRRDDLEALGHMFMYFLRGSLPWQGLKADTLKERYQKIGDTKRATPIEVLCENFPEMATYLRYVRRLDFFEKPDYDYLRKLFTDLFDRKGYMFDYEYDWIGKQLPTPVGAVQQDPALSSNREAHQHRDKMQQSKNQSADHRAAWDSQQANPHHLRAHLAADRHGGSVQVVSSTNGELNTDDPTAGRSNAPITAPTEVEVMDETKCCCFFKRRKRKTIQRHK

[15] = target: Serine/threonine-protein kinase RIO3 (Homo sapiens) (UniProt O14730)
[16] = target: Mitogen-activated protein kinase kinase kinase 9 (Homo sapiens, UniProt P80192)
[17] = target: Serine/threonine-protein kinase 24 (Homo sapiens) (UniProt Q9Y6E0)
[18] = target: Ephrin type-A receptor 3 (Homo sapiens) (UniProt P29320)
Ephrin type-A receptor 3 (Homo sapiens), sequence (P29320 whole entry): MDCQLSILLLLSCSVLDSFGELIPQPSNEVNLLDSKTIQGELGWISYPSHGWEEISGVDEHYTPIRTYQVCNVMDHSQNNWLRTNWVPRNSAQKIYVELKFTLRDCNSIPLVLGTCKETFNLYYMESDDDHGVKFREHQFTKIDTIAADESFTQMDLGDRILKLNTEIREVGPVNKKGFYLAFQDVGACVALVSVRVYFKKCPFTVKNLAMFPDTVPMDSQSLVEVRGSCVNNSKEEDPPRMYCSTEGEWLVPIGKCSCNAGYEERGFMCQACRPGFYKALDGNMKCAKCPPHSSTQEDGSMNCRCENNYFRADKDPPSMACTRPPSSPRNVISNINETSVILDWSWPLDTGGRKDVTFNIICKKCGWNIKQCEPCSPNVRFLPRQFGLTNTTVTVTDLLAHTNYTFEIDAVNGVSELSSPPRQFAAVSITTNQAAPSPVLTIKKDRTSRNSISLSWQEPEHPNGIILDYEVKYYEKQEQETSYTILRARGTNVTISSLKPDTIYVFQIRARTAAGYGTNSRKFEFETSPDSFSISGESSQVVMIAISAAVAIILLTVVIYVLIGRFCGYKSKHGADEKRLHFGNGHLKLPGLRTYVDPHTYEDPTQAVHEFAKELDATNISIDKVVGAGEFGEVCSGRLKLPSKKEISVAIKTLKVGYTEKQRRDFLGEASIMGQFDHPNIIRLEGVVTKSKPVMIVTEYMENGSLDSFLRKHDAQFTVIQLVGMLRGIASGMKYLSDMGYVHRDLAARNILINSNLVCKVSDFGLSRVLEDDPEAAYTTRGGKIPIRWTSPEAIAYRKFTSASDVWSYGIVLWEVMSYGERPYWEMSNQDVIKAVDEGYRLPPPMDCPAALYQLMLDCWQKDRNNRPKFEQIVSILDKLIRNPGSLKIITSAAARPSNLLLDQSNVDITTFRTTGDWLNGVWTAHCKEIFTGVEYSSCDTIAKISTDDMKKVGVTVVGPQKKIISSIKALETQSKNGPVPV

[19] = target: Serine/threonine-protein kinase 32C (Homo sapiens) (UniProt Q86UX6)
[20] = target: Serine/threonine-protein kinase SIK2 (Homo sapiens) (UniProt Q9H0K1)
[21] = target: Non-receptor tyrosine-protein kinase TYK2 (Homo sapiens) (UniProt P29597)
[22] = target: 5-hydroxytryptamine receptor 7 (Homo sapiens) (UniProt P34969); conditions: Compound concentration 10.0 uM
[23] = target: Mitogen-activated protein kinase kinase kinase 6 (Homo sapiens) (UniProt O95382)
Mitogen-activated protein kinase kinase kinase 6 (Homo sapiens), sequence (O95382 whole entry, canonical isoform): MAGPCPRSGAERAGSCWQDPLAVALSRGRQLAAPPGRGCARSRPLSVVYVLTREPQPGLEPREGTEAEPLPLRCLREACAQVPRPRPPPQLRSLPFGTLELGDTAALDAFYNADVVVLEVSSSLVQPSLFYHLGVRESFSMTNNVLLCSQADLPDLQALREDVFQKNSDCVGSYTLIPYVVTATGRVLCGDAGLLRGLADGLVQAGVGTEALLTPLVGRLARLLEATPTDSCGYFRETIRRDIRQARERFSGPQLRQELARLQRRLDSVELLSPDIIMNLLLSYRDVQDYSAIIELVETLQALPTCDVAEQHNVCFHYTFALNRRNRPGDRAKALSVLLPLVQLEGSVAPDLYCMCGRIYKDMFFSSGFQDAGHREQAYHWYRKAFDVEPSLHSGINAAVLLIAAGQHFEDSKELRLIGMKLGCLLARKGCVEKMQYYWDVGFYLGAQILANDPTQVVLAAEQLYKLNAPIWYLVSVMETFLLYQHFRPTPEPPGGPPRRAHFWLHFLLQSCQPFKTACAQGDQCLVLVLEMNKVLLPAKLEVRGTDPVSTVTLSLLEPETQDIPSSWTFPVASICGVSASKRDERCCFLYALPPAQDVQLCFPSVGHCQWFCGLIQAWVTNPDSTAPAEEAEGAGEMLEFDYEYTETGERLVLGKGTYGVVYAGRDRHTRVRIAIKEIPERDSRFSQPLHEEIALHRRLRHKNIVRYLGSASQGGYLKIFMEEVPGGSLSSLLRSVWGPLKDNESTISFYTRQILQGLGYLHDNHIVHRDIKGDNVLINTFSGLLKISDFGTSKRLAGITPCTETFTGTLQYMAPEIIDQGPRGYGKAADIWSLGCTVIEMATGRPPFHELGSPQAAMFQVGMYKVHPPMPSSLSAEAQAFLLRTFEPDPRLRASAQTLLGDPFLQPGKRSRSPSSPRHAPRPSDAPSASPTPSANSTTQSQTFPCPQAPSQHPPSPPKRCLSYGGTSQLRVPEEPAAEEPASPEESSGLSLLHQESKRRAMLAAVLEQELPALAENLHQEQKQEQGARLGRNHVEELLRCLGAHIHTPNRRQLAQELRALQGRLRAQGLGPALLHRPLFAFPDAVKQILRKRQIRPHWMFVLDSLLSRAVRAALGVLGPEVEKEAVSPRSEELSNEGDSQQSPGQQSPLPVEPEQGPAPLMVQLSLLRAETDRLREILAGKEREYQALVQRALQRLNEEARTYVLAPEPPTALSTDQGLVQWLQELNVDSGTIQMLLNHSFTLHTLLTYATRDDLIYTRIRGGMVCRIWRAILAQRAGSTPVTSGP

[24] = target: Casein kinase I isoform gamma-2 (Homo sapiens) (UniProt P78368)
Casein kinase I isoform gamma-2 (Homo sapiens), sequence (P78368 whole entry, looked up, canonical isoform): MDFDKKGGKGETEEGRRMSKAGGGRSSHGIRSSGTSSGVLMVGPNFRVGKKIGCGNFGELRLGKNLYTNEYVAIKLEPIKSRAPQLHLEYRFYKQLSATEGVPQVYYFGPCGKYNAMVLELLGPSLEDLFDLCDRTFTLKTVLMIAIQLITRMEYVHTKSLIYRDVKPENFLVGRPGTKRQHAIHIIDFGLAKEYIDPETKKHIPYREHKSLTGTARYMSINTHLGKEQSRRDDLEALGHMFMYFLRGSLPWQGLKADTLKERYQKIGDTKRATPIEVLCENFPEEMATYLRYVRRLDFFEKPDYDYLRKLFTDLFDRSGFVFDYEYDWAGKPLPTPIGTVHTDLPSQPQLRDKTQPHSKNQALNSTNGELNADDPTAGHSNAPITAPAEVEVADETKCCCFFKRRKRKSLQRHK

[25] = target: Mitogen-activated protein kinase 7 (Homo sapiens) (UniProt Q13164)
[26] = system: Tyrosine-protein kinase ABL1 (Homo sapiens), P00519 [H396P]
[27] = target: TGF-beta receptor type-2 (Homo sapiens) (UniProt P37173)
[28] = target: NUAK family SNF1-like kinase 2 (Homo sapiens) (UniProt Q9H093)
[29] = system: Tyrosine-protein kinase ABL1 (Homo sapiens), P00519 [T315I]
[30] = target: Homeodomain-interacting protein kinase 4 (Homo sapiens) (UniProt Q8NE63)
[31] = target: Casein kinase I isoform alpha-like (Homo sapiens) (UniProt Q8N752)
[32] = target: Platelet-derived growth factor receptor alpha (Homo sapiens) (UniProt P16234)
[33] = target: Alpha-1B adrenergic receptor (Homo sapiens) (UniProt P35368); conditions: Compound concentration 10.0 uM
Alpha-1B adrenergic receptor (Homo sapiens), sequence (P35368 whole entry): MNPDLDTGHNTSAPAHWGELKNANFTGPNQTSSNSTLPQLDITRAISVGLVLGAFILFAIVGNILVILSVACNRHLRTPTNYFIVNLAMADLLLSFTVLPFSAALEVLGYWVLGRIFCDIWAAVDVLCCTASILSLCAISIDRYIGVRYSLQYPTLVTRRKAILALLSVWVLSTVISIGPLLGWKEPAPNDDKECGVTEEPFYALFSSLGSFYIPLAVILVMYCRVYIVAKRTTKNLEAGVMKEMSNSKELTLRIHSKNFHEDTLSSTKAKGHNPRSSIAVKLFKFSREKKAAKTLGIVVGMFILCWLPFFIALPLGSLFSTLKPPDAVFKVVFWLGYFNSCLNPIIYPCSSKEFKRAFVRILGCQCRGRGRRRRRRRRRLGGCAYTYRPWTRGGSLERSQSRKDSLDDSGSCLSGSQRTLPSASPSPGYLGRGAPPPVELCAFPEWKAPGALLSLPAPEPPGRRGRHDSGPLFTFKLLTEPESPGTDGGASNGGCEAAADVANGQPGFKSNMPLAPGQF

[34] = target: Calcium/calmodulin-dependent protein kinase type IV (Homo sapiens) (UniProt Q16566)
[35] = target: Interferon-induced, double-stranded RNA-activated protein kinase (Homo sapiens) (UniProt P19525)
[36] = target: Mitogen-activated protein kinase kinase kinase 7 (Homo sapiens) (UniProt O43318)
[37] = target: MAP/microtubule affinity-regulating kinase 3 (Homo sapiens) (UniProt P27448)
[38] = target: Testis-specific serine/threonine-protein kinase 1 (Homo sapiens) (UniProt Q9BXA7)
Testis-specific serine/threonine-protein kinase 1 (Homo sapiens), sequence (Q9BXA7 whole entry): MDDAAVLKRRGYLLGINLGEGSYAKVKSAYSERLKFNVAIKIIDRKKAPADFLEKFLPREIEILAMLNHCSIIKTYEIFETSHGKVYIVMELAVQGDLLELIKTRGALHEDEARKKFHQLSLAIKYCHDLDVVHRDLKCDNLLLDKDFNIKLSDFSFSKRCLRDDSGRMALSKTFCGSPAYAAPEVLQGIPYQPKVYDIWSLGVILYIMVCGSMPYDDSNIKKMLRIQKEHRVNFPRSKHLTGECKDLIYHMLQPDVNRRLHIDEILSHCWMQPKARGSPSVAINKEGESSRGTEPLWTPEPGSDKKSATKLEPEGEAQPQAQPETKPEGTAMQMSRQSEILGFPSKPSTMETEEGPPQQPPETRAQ

[39] = target: Ephrin type-B receptor 2 (Homo sapiens) (UniProt P29323)
Ephrin type-B receptor 2 (Homo sapiens), sequence (P29323 whole entry): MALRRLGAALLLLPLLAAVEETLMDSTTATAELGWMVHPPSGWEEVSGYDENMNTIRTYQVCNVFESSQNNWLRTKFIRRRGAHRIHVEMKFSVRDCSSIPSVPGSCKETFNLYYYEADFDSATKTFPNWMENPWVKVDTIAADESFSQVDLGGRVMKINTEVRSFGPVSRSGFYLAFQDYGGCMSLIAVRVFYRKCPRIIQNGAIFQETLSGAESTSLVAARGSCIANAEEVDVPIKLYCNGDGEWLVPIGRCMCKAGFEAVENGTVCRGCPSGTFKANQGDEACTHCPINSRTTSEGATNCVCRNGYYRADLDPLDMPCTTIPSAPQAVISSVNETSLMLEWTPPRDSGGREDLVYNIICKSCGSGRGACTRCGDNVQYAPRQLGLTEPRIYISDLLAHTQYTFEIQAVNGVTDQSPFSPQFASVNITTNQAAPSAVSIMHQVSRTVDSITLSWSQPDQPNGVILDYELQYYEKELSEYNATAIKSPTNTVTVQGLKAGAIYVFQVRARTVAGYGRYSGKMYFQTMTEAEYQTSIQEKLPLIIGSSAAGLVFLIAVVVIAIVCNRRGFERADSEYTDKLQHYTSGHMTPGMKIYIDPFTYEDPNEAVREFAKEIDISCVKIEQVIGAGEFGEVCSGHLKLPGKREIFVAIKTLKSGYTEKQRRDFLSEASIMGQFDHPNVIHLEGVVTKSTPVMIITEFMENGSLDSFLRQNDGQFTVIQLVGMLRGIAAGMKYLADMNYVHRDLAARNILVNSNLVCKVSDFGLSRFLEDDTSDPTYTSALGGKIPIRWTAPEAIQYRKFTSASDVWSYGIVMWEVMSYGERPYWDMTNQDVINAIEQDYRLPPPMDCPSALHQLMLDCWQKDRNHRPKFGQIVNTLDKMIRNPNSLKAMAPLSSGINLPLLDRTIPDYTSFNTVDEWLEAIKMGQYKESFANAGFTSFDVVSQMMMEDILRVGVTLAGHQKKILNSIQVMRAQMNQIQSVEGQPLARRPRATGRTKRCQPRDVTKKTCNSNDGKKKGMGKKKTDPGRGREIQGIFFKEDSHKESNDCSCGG

[40] = Compound concentration 100.0 nM
[41] = Compound concentration 1000.0 nM

CNC(=O)c1ccc(Nc2ncc(C(F)(F)F)c(NCc3nccnc3N(C)S(C)(=O)=O)n2)cc1 [DEFACTINIB]
residual activity [1, 40]: 100% | residual activity [2, 40]: 76% | residual activity [3, 40]: 100% | residual activity [4, 40]: 14% | residual activity [5, 40]: 68% | residual activity [6, 40]: 79% | residual activity [7, 40]: 75% | residual activity [8, 40]: 91% | residual activity [9, 40]: 84% | residual activity [10, 40]: 100% | residual activity [11, 40]: 100% | residual activity [12, 40]: 37% | residual activity [13, 40]: 23% | residual activity [14, 40]: 100% | residual activity [15, 40]: 55% | residual activity [16, 40]: 44% | residual activity [17, 40]: 54% | residual activity [18, 40]: 82% | residual activity [19, 40]: 100% | residual activity [20, 40]: 100% | residual activity [21, 40]: 27% | inhibition [22]: 5.31% | residual activity [23, 40]: 90% | residual activity [24, 40]: 99% | residual activity [25, 40]: 87% | residual activity [26, 40]: 100% | residual activity [27, 40]: 100% | residual activity [28, 40]: 53% | residual activity [29, 40]: 93% | residual activity [30, 40]: 54% | residual activity [31, 40]: 77% | residual activity [32, 40]: 77% | inhibition [33]: -0.22% | residual activity [34, 40]: 100% | residual activity [35, 40]: 100% | residual activity [36, 40]: 57% | residual activity [37, 40]: 90% | residual activity [38, 40]: 64% | residual activity [39, 40]: 76%

CN(c1ccnc(CNc2nc(Nc3ccc4c(c3)CC(=O)N4)ncc2C(F)(F)F)n1)S(C)(=O)=O [PF-00911705]
residual activity [1, 41]: 57% | residual activity [2, 41]: 100% | residual activity [3, 41]: 63% | residual activity [4, 41]: 0.7% | residual activity [5, 41]: 87% | residual activity [6, 41]: 84% | residual activity [7, 41]: 21% | residual activity [8, 41]: 44% | residual activity [9, 41]: 7.6% | residual activity [10, 41]: 82% | residual activity [11, 41]: 59% | residual activity [12, 41]: 22% | residual activity [13, 41]: 40% | residual activity [14, 41]: 100% | residual activity [15, 41]: 8.5% | residual activity [16, 41]: 41% | residual activity [17, 41]: 93% | residual activity [18, 41]: 72% | residual activity [19, 41]: 76% | residual activity [20, 41]: 41% | residual activity [21, 41]: 27% | inhibition [22]: -4.55% | residual activity [23, 41]: 73% | residual activity [24, 41]: 100% | residual activity [25, 41]: 78% | residual activity [26, 41]: 46% | residual activity [27, 41]: 100% | residual activity [28, 41]: 7.6% | residual activity [29, 41]: 36% | residual activity [30, 41]: 35% | residual activity [31, 41]: 81% | residual activity [32, 41]: 58% | inhibition [33]: 0.5% | residual activity [34, 41]: 100% | residual activity [35, 41]: 82% | residual activity [36, 41]: 48% | residual activity [37, 41]: 52% | residual activity [38, 41]: 56% | residual activity [39, 41]: 81%
